Measurements: US20250032486A1, “COMBINATION OF 5-AMINO-2,3-DIHYDRO-1,4-PHTALAZINEDIONE AND A 6'-METHOXYCINCHONAN-9-OL FOR USE IN THE TREATMENT OF CORONAVIRAL INFECTIONS” (METROPHARM AG, priority 2021, published 2025)
Counter-ions that a name gives are not always drawn. Like-named read-outs stand apart in the source and are kept apart here.

How the values were obtained:
SARS-CoV-2 [1] = settings: from WO 2021/249667 and WO 2021/219244; cited from earlier work
SARS-CoV-2 [2] = type: cell-based
3-nitrotyrosine = settings: ex vivo lung, cigarette smoke; cited from earlier work

C=C[C@H]1CN2CC[C@H]1C[C@@H]2[C@@H](O)c1ccnc2ccc(OC)cc12 [quinidine, (+)-(9S)-6′-methoxycinchonan-9-ol]
inhibition of the replication of SARS-CoV-2 in vitro (SARS-CoV-2 [1]): Such an effect was also described

C=C[C@H]1C[N@@]2CC[C@H]1C[C@H]2[C@H](O)c1ccnc2ccc(OC)cc12 [quinine sulfate]
amount of SARS-CoV-2 RNA copies (qRT-PCR-amplified RdRp, in relation to untreated cells) (SARS-CoV-2 [2]; Example 1, Calu-3 cells, 3 days, luminol sodium salt 500/250/125 μM, quinine sulfate 10/1/0.1 μM, alone and combined, n=3): dose-dependent reduction

Nc1cccc2c(=O)[nH][nH]c(=O)c12.[Na] [5-amino-2,3-dihydro-1,4-phthalazinedione sodium salt]
amount of SARS-CoV-2 RNA copies (qRT-PCR-amplified RdRp, in relation to untreated cells) (SARS-CoV-2 [2]): dose-dependent reduction
inhibition of the replication of SARS-CoV-2 in vitro (SARS-CoV-2 [1]): dose-dependently inhibit
reduction of 3-nitrotyrosine (3-nitrotyrosine): nearly complete reduction

C=C[C@H]1C[N@@]2CC[C@H]1C[C@@H]2[C@@H](O)c1ccnc2ccc(OC)cc12 [quinidine sulfate]
amount of SARS-CoV-2 RNA copies (qRT-PCR-amplified RdRp, in relation to untreated cells) (SARS-CoV-2 [2]; Example 3, Calu-3 cells, 3 days, luminol sodium salt 500/250/125 μM, quinidine sulfate 10/1/0.1 μM, alone and combined, n=2): dose-dependent reduction

C=C[C@H]1CN2CC[C@H]1C[C@H]2[C@H](O)c1ccnc2ccc(OC)cc12 [quinine, (−)-(8a,9R)-6′-methoxycinchonan-9-ol]
inhibition of the replication of SARS-CoV-2 in vitro (SARS-CoV-2 [1]): Such an effect was also described
